Data on 22 molecules can be found in ChEMBL document CHEMBL1130748, “Design and synthesis of monocyclic beta-lactams as mechanism-based inhibitors of human cytomegalovirus protease” (Bioorg Med Chem Lett, 1998).

One data set concerns the target Chymotrypsinogen A (Bos taurus, UniProt P00766). The data set can be described thus: Concentration required to inhibit the mammalian Chymotrypsinogen by 50% was determined.
The test system of data set [1] is Human betaherpesvirus 5. The data set can be described thus: Binding affinity towards mutant alpha-Ala HCMV protease was determined. Type of data set: functional.
A short description of data set [2]: Compound was tested for its stability by HPLC method, value expressed as half life. Type of data set: physicochemical.
The species named for a further data set is Homo sapiens. Nature of the data set: Concentration required to inhibit the mammalian elastase by 50% was determined. Type of data set: functional, organism-based.
The target in another data set is Acetylcholinesterase (Homo sapiens, UniProt P22303). Nature of the data set: Concentration required to inhibit the mammalian Acetylcholinesterase by 50% was determined.
Chain of Acetylcholinesterase (P22303 whole entry): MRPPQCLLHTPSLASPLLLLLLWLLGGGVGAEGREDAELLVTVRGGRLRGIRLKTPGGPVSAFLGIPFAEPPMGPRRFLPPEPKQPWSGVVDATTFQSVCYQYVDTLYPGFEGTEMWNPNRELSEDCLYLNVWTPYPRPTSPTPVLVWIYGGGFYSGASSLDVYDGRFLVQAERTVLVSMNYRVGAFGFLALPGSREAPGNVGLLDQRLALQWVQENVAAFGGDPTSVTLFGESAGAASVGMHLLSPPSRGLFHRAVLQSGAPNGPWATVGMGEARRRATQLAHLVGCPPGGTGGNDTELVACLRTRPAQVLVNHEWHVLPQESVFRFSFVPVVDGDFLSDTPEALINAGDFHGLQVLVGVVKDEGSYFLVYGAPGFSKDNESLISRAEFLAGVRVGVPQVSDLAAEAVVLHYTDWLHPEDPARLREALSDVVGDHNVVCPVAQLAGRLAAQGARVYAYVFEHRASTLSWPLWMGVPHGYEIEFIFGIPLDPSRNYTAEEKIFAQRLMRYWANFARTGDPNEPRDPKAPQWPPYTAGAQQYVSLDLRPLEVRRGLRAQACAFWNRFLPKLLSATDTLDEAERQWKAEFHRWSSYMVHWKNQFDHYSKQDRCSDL
Data set [3] addresses Capsid scaffolding protein (Human cytomegalovirus (strain AD169) (HHV-5) (Human herpesvirus 5), UniProt P16753). The data set can be described thus: Concentration required to inhibit the mutant alpha-Ala HCMV protease by 50% was determined.
Data set [4] relates to Human betaherpesvirus 5. The data set can be described thus: Compound was evaluated for antiviral activity measured as percentage inhibition determined at a concentration of 100 (uM) against mutant alpha-Ala HCMV protease. Type of data set: functional.
In data set [5] the test system is Human betaherpesvirus 5. Nature of the data set: The compound was evaluated for antiviral activity measured as percentage inhibition determined at a concentration of 100 (uM) against mutant alpha-Ala HCMV protease. Type of data set: functional.
In data set [6] the test system is Human betaherpesvirus 5. Nature of the data set: Compound was evaluated for antiviral activity measured as percentage inhibition determined at a concentration of 500 (uM) against mutant alpha-Ala HCMV protease. The format is functional.
The subject of data set [7] is Human betaherpesvirus 5. Nature of the data set: 50 % concentration required to inhibit the mutant alpha-Ala HCMV protease was determined. Type of data set: functional.

Usually pIC50 stands for the IC50 on a negative log10 scale, so that one unit is a factor of ten. The low end stands for a high IC50, the high end for a low IC50. A word on the pKi: it is the negative decadic logarithm of the Ki, by convention in mol/L. A lower pKi goes with a large Ki. Broadly, the half-life is the time needed for the level to fall by half in the phase considered. Lower therefore signals rapid decline. The Inhibition is the share of the control response that was lost under treatment. Low readings indicate a weak effect, high ones a strong effect.

Each structure is given as a SMILES string. pIC50, pKi: −log10 of the molar value.

Chain of Capsid scaffolding protein (P16753 1-256 limits assumed): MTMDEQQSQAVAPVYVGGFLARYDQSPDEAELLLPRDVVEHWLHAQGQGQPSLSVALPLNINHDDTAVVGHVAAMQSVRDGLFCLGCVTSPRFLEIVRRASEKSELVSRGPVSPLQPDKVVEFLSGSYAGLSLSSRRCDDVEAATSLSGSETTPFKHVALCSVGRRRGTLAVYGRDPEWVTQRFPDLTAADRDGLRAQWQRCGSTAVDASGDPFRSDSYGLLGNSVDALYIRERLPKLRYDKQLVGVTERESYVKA

With `C[C@H]1C(=O)N(C(=O)NCc2ccccc2)[C@@H]1Oc1ccc(C(=O)O)cc1`, the pIC50 at Chymotrypsinogen A was 5.80; in the data set filed under Homo sapiens it was 5.41; on Acetylcholinesterase, less than 4.00; in data set [3], 4.70. For the same molecule, the pKi in the data set on Human betaherpesvirus 5 [1] is 5.25. In [2], this molecule showed a half-life of 3.1 h.
`CC(=O)O[C@@H]1[C@H](C)C(=O)N1C(=O)Nc1ccccc1` had a pIC50 in data set [3] of less than 4.00.
With `CC[C@H]1C(=O)N(C(=O)NCc2ccccc2)[C@@H]1Oc1ccc(C(=O)O)cc1`, the negative logarithm of the Ki (pKi) in the data set on Human betaherpesvirus 5 [1] was 5.08. In addition, the half-life in [2] was 7.6 h. Also, the pIC50 in [3] was 4.30.
`O=C(O)c1ccc(O[C@@H]2CC(=O)N2C(=O)Nc2ccccc2)cc1` came in with an Inhibition in the data set on Human betaherpesvirus 5 [4] of 43%. In data set [3], this molecule showed a negative-log IC50 (pIC50) of less than 4.00.
In the data set with Human betaherpesvirus 5 [1], `CCCCNC(=O)N1C(=O)C[C@H]1OC(C)=O` showed a pKi of 4.59. The molecule further gave a pIC50 in data set [3] of 4.17.
Molecule `CC[C@@H]1C(=O)N(C(=O)NCc2ccccc2)[C@@H]1Oc1ccc(C(=O)O)cc1` came in with an Inhibition with Human betaherpesvirus 5 [5] of 25%. This molecule had a pIC50 in data set [3] of less than 4.00.
`CCC1(CC)C(=O)N(C(=O)NC)[C@@H]1OC(C)=O`: the Inhibition in the data set on Human betaherpesvirus 5 [4] stood at 5%. The molecule also showed a pIC50 in [3] of less than 4.00.
In [3], `CC(=O)O[C@@H]1[C@@H](C)C(=O)N1C(=O)NCc1ccccc1` had a pIC50 of 5.19.
In turn, `CC(=O)O[C@@H]1CC(=O)N1C(=O)NC(C)C` returned an Inhibition in the data set on Human betaherpesvirus 5 [4] of 30%. The pIC50 in data set [3] was less than 4.00.
Consider `C[C@@H]1C(=O)N(C(=O)NCc2ccccc2)[C@@H]1Oc1ccc(C(=O)O)cc1`, for which, in the data set with Human betaherpesvirus 5 [4], the Inhibition turned out to be 12%. In data set [3], this molecule had a pIC50 of less than 4.00.
The molecule `CNC(=O)N1CCC1=O` had an Inhibition in the data set with Human betaherpesvirus 5 [6] of 7.7%.
`CC(C)NC(=O)N1C(=O)C[C@H]1Oc1ccc(C(=O)O)cc1` registered an Inhibition in the data set on Human betaherpesvirus 5 [4] of 8%. Besides, in data set [3], the pIC50 was 4.00.
With `CC(=O)O[C@@H]1[C@H](C)C(=O)N1C(=O)NCc1ccccc1`, the pIC50 in data set [3] is 4.57.
As for `CC(=O)OC1CC(=O)N1` (stereo not given), in the data set on Human betaherpesvirus 5 [6], the Inhibition is 0%.
On to `CC(=O)O[C@@H]1CC(=O)N1C(=O)NCc1ccccc1`, for which the negative-log Ki (pKi) in the data set with Human betaherpesvirus 5 [1] was 4.70. In addition, in [2], the half-life was 0.53 h. The molecule further had a negative logarithm of the IC50 (pIC50) in [3] of 4.38.
As to `C[C@H]1C(=O)N(C(=O)NCc2ccccc2)[C@@H]1Oc1ccc(C(=O)C(C)(C)C)cc1`, the pIC50 against Chymotrypsinogen A is less than 4.00; in the data set listed under Homo sapiens, less than 4.00; against Acetylcholinesterase, less than 4.00; in data set [3] it was 4.77. Further, the negative-log Ki (pKi) in the data set on Human betaherpesvirus 5 [1] was 5.24. In addition, the half-life in data set [2] was 22.8 h.
Molecule `CC(=O)O[C@@H]1[C@@H](C)C(=O)N1C(=O)Nc1ccccc1` showed a pIC50 in [3] of 4.07.
`C[C@@H]1C(=O)N(C(=O)NCc2ccccc2)[C@@H]1Oc1ccc(C(=O)C(C)(C)C)cc1`: in the data set on Human betaherpesvirus 5 [4], the Inhibition stood at 35%. The negative-log IC50 (pIC50) in data set [3] was less than 4.00.
`O=C(O)c1ccc(O[C@@H]2CC(=O)N2C(=O)NCc2ccccc2)cc1` returned an Inhibition in the data set on Human betaherpesvirus 5 [4] of 48%. The molecule further gave a half-life in data set [2] of 1.4 h. The negative logarithm of the IC50 (pIC50) in [3] was less than 4.00.
Consider `CC(=O)O[C@H]1N(C(=O)NCc2ccccc2)C(=O)C1(C)C`, for which the Inhibition in the data set on Human betaherpesvirus 5 [4] is recorded as 6%. For the same molecule, the pIC50 in data set [3] is less than 4.00.
On the same counts, the results for `CCNC(=O)N1C(=O)C[C@H]1OC(C)=O` are 36% and less than 4.00.
As to `CNC(=O)N1C(=O)C[C@H]1OC(C)=O`, the Inhibition is given as 29% in the data set with Human betaherpesvirus 5 [4] and 68.5% with Human betaherpesvirus 5 [6]. Besides, the negative-log IC50 (pIC50) in the data set on Human betaherpesvirus 5 [7] was less than 4.00.
